From patent EP0555681A1, “Use of a combination of potassium channel activators and sulfhydryl containing compounds for the manufacture of a medicament for the treatment of ischemia and myocarolial infarct” (E.R. SQUIBB & SONS, INC., priority 1992, dated 1993)
Like-named read-outs stand apart in the source and are kept apart here. Values belong to the molecule of their own block, whether it stands above or below them.

How the values were obtained:
Parameters in all cases: species or system Male Sprague-Dawley rats
isolated rat hearts [1] = assay: Global ischemia and reperfusion in isolated perfused (Langendorff) rat hearts: EDP, LDH release, double product
Description: anesthetized using 100 mg/kg sodium pentobarbital (i.p.). They were intubated and then treated with i.v. heparin (1000 U/kg). While mechanically ventilated, hearts were perfused in situ via retrograde cannulation of the aorta. […] A water-filled latex balloon, attached to a metal cannula, was inserted into the left ventricle and connected to a Statham pressure transducer for measurement of left ventricular pressure. The hearts were allowed to equilibrate for 15 minutes, at which time end diastolic pressure (EDP) was adjusted to 5 mm Hg and the balloon pressure was maintained for the duration of the experiment. Pre-ischemia or pre-drug function, heart rate and coronary flow (extracorporeal electromagnetic flow probe, Carolina Medical Electronics, King, N.C.) were then measured. Cardiac function was determined using double product of heart rate (HR) X left ventricular developed pressure (LVDP) divided by 1000. Cardiac temperature was maintained throughout the experiment by submerging the hearts in a heated chamber filled with 37°C buffer. All hearts were retreated with vehicle or drug for 10 minutes before the onset of ischemia. All drugs were given only before ischemia. The hearts were subjected to 25 minutes of global ischemia and 30 minutes of reperfusion. At the end of the experiment, EDP and LDH release were measured and used as an index of severity of ischemia.

isolated rat hearts [2] = assay: as above; conditions: 100 or 300 µM N-acetylcysteine; 30 minutes into reperfusion following 35 minutes of global ischemia (Fig. 3a, 3b)
isolated rat hearts [3] = assay: Time to contracture during global ischemia in isolated rat hearts, with isobolographic analysis of the combination; conditions: read-out: EC₅₀ for percentage change in time to contracture
Description: anesthetized using 100 mg/kg sodium pentobarbital (i.p.). They were intubated and then treated with i.v. heparin (1000 U/kg). While mechanically ventilated, hearts were perfused in situ via retrograde cannulation of the aorta. The hearts were then excised and quickly moved to a Langendorff apparatus where they were perfused with Krebs-Henseleit bicarbonate buffer (112 mM sodium chloride, 25 mM sodium bicarbonate, 5 mM potassium chloride, 1.2 mM magnesium sulfate, 1 mM potassium […], 1.25 mM calcium chloride, 11.5 mM glucose and 2mM pyruvate bubbled with 95% oxygen - 5% carbon dioxide) at a constant perfusion pressure (75 mm Hg). A water-filled latex balloon, attached to a metal cannula, was inserted into the left ventricle and connected to a Statham pressure transducer for measurement of left ventricular pressure. The hearts were allowed to equilibrate for 15 minutes, at which time end diastolic pressure (EDP) was adjusted to 5 mm Hg and the balloon pressure was maintained for the duration of the experiment. Pre-ischemia or pre-drug function, heart rate and coronary flow (extracorporeal electromagnetic flow probe, Carolina Medical Electronics, King, N.C.) were then measured. Cardiac function was determined using double product of heart rate (HR) X left ventricular developed pressure (LVDP) divided by 1000. Cardiac temperature was maintained throughout the experiment by submerging the hearts in a heated chamber filled with 37°C buffer.
All hearts were retreated with vehicle or drug for 10 minutes before the onset of ischemia. All drugs were given only before ischemia. The hearts were subjected to 25 minutes of global ischemia and 30 minutes of reperfusion. At the end of the experiment, EDP and LDH release were measured and used as an index of severity of ischemia.
The effect of the combination of a potassium channel activator and a sulfhydryl containing compound was determined using a technique known as isobolographic analysis (R. J. Tallarida et al, "Minireview-Satistical Analysis of Drug-Drug and Site-Site Interactions with Isobolograms", Life Sciences, 45:947-961, 1989). This technique is commonly used to investigate the interaction between drugs.
Several specific concentration ratios (3:1, 12:1 and 30:1) of cromakalim to zofenopril respectively were tested and the effects of the combination determined. The concentration response curves for cromakalim and zofenopril were expressed as percentage increase in time to contracture from control. Time to contracture was measured as the time during ischemia for end diastolic pressure to increase by 5 mm Hg.
EC₅₀ for percentage change in time to contracture for cromakalim and zofenopril given alone or in the concentration ratios indicated were calculated.

[4] = blocker (1 µM glyburide or 100 µM sodium 5-hydroxydecanoate) given with zofenopril prodrug (Fig. 1a)
[5] = blocker (1 µM glyburide or 100 µM sodium 5-hydroxydecanoate) given with zofenopril prodrug (Fig. 1b)
[6] = given alone, time during ischemia for EDP to increase by 5 mm Hg

Compound: C[C@H](CS)C(=O)N1C[C@@H](Sc2ccccc2)C[C@H]1C(=O)O [free-SH form of zofenopril]
- cardioprotective effect (EDP and cumulative LDH release) (isolated rat hearts [1]; 400 µM zofenopril-SH, 30 minutes into reperfusion following 25 minutes of global ischemia (Fig. 2a, 2b)): cardioprotective effect

Compound: CC(=O)N[C@@H](CS)C(=O)O [N-acetyl-cysteine, N-acetylcysteine]
- protection of ischemic cardiac tissue (EDP and cumulative LDH release) (isolated rat hearts [2]): protected ischemic cardiac tissue

Compound: CCCCCC(O)CCCC(=O)[O-].[Na+] (stereo not shown) [sodium-5-hydroxy-decanoate, sodium 5-hydroxydecanoate]
- end diastolic pressure (EDP) (isolated rat hearts [1]; [4]): increase
- cumulative LDH release (isolated rat hearts [1]; [5]): increase

- EC50 (isolated rat hearts [3]; concentration ratio 3:1 cromakalim to zofenopril, zofenopril component): 0.128 µM
- EC50 (isolated rat hearts [3]; concentration ratio 12:1 cromakalim to zofenopril, zofenopril component): 0.48 µM
- EC50 (isolated rat hearts [3]; concentration ratio 30:1 cromakalim to zofenopril, zofenopril component): 0.29 µM
- EC50 (isolated rat hearts [3]; [6]): 75 µM
Compound: C[C@H](CSC(=O)c1ccccc1)C(=O)N1C[C@@H](Sc2ccccc2)C[C@H]1C(=O)O [Zofenopril]
- end diastolic pressure (EDP) (isolated rat hearts [1]; 100 µM zofenopril, 30 minutes into reperfusion following 25 minutes of global ischemia (Fig. 1a)): significantly reduced
- cumulative LDH release (isolated rat hearts [1]; 100 µM zofenopril, 30 minutes into reperfusion following 25 minutes of global ischemia (Fig. 1b)): significantly reduced

- EC50 (isolated rat hearts [3]; concentration ratio 3:1 cromakalim to zofenopril, cromakalim component): 5.15 µM
- EC50 (isolated rat hearts [3]; concentration ratio 12:1 cromakalim to zofenopril, cromakalim component): 5.96 µM
- EC50 (isolated rat hearts [3]; concentration ratio 30:1 cromakalim to zofenopril, cromakalim component): 9.3 µM
- EC50 (isolated rat hearts [3]; [6]): 39.7 µM
Compound: CC1(C)Oc2ccc(C#N)cc2C(N2CCCC2=O)C1O (racemic) [Cromakalim, (±)-6-cyano-3,4-dihydro-2,2-dimethyl-trans-4-(2-oxo-1-pyrrolidyl)-2H-benzo[6]-pyran-3-ol]

Compound: COc1ccc(Cl)cc1C(=O)NCCc1ccc(S(=O)(=O)NC(=O)NC2CCCCC2)cc1 [Glyburide]
- reversal of the cardioprotective effect of zofenopril-SH (isolated rat hearts [1]; 1 µM glyburide with 400 µM zofenopril-SH (Fig. 2a, 2b)): reverses the cardioprotective effect
- reversal of the protective effect of N-acetylcysteine (isolated rat hearts [1]; 1 µM glyburide with N-acetylcysteine (Fig. 3a, 3b)): reversed
- end diastolic pressure (EDP) (isolated rat hearts [1]; [4]): increase
- cumulative LDH release (isolated rat hearts [1]; [5]): increase
- reversal of the effects of penicillamine on double product and LDH release (isolated rat hearts [1]; glyburide with penicillamine (Fig. 4a, 4b)): partially reversed

Compound: CC(C)(S)[C@@H](N)C(=O)O [Penicillamine]
- protection of cardiac tissue (isolated rat hearts [1]; penicillamine (Fig. 4a, 4b)): protects cardiac tissue
- LDH release (isolated rat hearts [1]; penicillamine (Fig. 4b)): significantly reduced
- reperfusion double product (isolated rat hearts [1]; penicillamine, HR x LVDP divided by 1000 (Fig. 4a)): significantly improved
